Measured values from paper PMC7525662, “Preclinical dosimetry models and the prediction of clinical doses of novel positron emission tomography radiotracers” (Scientific Reports, 2020).
Marks after values point to notes of the source that are not given here.

Legend:
Design in all cases: species or system Sprague–Dawley rats
Settings in all cases: rat, in vivo
[1] = Residence times normalised to human organ masses, FBP reconstruction
Method: PET studies were reconstructed using filtered-back projection (FBP) and Mediso’s iterative Tera-Tomo 3D reconstruction algorithm with the following settings: 4 iterations, 6 subsets, full detector model, normal regularization, spike filter on, voxel size 0.4 mm and 400‒600 keV energy window. PET data were corrected for randoms, scatter and attenuation. Time-activity curves for each source organ, whole-body and remainder of the body were plotted. […] Residence times (τ) were determined for each radiotracer in source organs, whole-body and remaining (any activity assigned to the whole-body but not assigned to a source organ). Each preclinical source organ’s τ was determined by calculating the area under its respective time-activity curve (activity normalised to the percentage maximum injected dose as a function of time) using the trapezoid method. […] From each individual animal, eight dosimetry models were constructed from all possible combinations of image reconstruction method (FBP or iterative), τ (non-normalised or normalised to human organ masses), and sex of phantom (male or female). Supplementary table 1. Scaling (normalisation) factors applied to residence times of PET radiotracers in male Sprague-Dawley rats to predict human adult residence times. […] Stabin et al. 2006 ^4); WB: Whole Body.

[2] = OLINDA/EXM predicted clinical doses: adult male phantom, normalised τ, iterative
Method: (§1) PET studies were reconstructed using filtered-back projection (FBP) and Mediso’s iterative Tera-Tomo 3D reconstruction algorithm with the following settings: 4 iterations, 6 subsets, full detector model, normal regularization, spike filter on, voxel size 0.4 mm and 400‒600 keV energy window. PET data were corrected for randoms, scatter and attenuation. Time-activity curves for each source organ, whole-body and remainder of the body were plotted. […] Residence times (τ) were determined for each radiotracer in source organs, whole-body and remaining (any activity assigned to the whole-body but not assigned to a source organ). Each preclinical source organ’s τ was determined by calculating the area under its respective time-activity curve (activity normalised to the percentage maximum injected dose as a function of time) using the trapezoid method. […] From each individual animal, eight dosimetry models were constructed from all possible combinations of image reconstruction method (FBP or iterative), τ (non-normalised or normalised to human organ masses), and sex of phantom (male or female). Supplementary table 11. Predicted clinical absorbed organ doses and whole-body effective doses of PET radiotracers using normalised adult male source organ residence times from iterative reconstructions.

[3] = OLINDA/EXM predicted clinical doses: adult male phantom, non-normalised τ, iterative
Method: as §1, with “female).” for “female). Supplementary table 11. Predicted clinical absorbed organ doses and whole-body effective doses of PET radiotracers using normalised adult male source organ residence times from iterative reconstructions.”

[4] = OLINDA/EXM predicted clinical doses: adult male phantom, normalised τ, FBP
Method: as §1, with “female).” for “female). Supplementary table 11. Predicted clinical absorbed organ doses and whole-body effective doses of PET radiotracers using normalised adult male source organ residence times from iterative reconstructions.”

Structure (SMILES): O=C[C@H]([18F])[C@@H](O)[C@H](O)[C@H](O)CO [FDG, 2-deoxy-2-[^18F]fluoro-D-glucose]
- Normalised Residence Time (h), Average: Remaining [1]: 2.12 h
- Effective Dose [2]: 2.46E-02 mSv/MBq
- Estimated Absorbed Dose of Organ, Adrenals [2]: 9.55E-03 mGy/MBq
- Estimated Absorbed Dose of Organ, Brain [2]: 1.47E-02 mGy/MBq
- Estimated Absorbed Dose of Organ, Breasts [2]: 6.86E-03 mGy/MBq
- Estimated Absorbed Dose of Organ, Gallbladder Wall [2]: 9.38E-03 mGy/MBq
- Estimated Absorbed Dose of Organ, Heart Wall [2]: 8.18E-02 ‡ mGy/MBq
- Estimated Absorbed Dose of Organ, Kidneys [2]: 2.30E-02 mGy/MBq
- Estimated Absorbed Dose of Organ, LLI Wall [2]: 7.18E-02 § mGy/MBq
- Estimated Absorbed Dose of Organ, Liver [2]: 9.11E-03 mGy/MBq
- Estimated Absorbed Dose of Organ, Lungs [2]: 1.46E-02 mGy/MBq
- Estimated Absorbed Dose of Organ, Muscle [2]: 8.37E-03 mGy/MBq
- Estimated Absorbed Dose of Organ, Osteogenic Cells [2]: 1.16E-02 mGy/MBq
- Estimated Absorbed Dose of Organ, Pancreas [2]: 1.00E-02 mGy/MBq
- Estimated Absorbed Dose of Organ, Red Marrow [2]: 8.31E-03 mGy/MBq
- Estimated Absorbed Dose of Organ, Skin [2]: 5.99E-03 mGy/MBq
- Estimated Absorbed Dose of Organ, Small Intestine [2]: 1.15E-02 mGy/MBq
- Estimated Absorbed Dose of Organ, Spleen [2]: 8.72E-03 mGy/MBq
- Estimated Absorbed Dose of Organ, Stomach Wall [2]: 9.21E-03 mGy/MBq
- Estimated Absorbed Dose of Organ, Testes [2]: 9.57E-03 mGy/MBq
- Estimated Absorbed Dose of Organ, Thymus [2]: 9.60E-03 mGy/MBq
- Estimated Absorbed Dose of Organ, Thyroid [2]: 7.39E-03 mGy/MBq
- Estimated Absorbed Dose of Organ, ULI Wall [2]: 1.01E-02 mGy/MBq
- Estimated Absorbed Dose of Organ, Urinary Bladder Wall [2]: 1.43E-01 † mGy/MBq
- Estimated Absorbed Dose, Total Body [2]: 9.30E-03 mGy/MBq
- Effective Dose (mSv/MBq), Average ± SD [3]: 6.24E-02 mSv/MBq
- Estimated Absorbed Dose of Organ, Average ± SD: Adrenals [3]: 9.39E-03 mGy/MBq
- Estimated Absorbed Dose of Organ, Average ± SD: Brain [3]: 5.73E-03 mGy/MBq
- Estimated Absorbed Dose of Organ, Average ± SD: Breasts [3]: 5.93E-03 mGy/MBq
- Estimated Absorbed Dose of Organ, Average ± SD: Gallbladder Wall [3]: 1.04E-02 mGy/MBq
- Estimated Absorbed Dose of Organ, Average ± SD: Heart Wall [3]: 2.60E-02 mGy/MBq
- Estimated Absorbed Dose of Organ, Average ± SD: Kidneys [3]: 3.58E-02 § mGy/MBq
- Estimated Absorbed Dose of Organ, Average ± SD: LLI Wall [3]: 1.92E-01 ‡ mGy/MBq
- Estimated Absorbed Dose of Organ, Average ± SD: Liver [3]: 9.19E-03 mGy/MBq
- Estimated Absorbed Dose of Organ, Average ± SD: Lungs [3]: 6.86E-03 mGy/MBq
- Estimated Absorbed Dose of Organ, Average ± SD: Muscle [3]: 1.15E-02 mGy/MBq
- Estimated Absorbed Dose of Organ, Average ± SD: Osteogenic Cells [3]: 1.26E-02 mGy/MBq
- Estimated Absorbed Dose of Organ, Average ± SD: Pancreas [3]: 9.88E-03 mGy/MBq
- Estimated Absorbed Dose of Organ, Average ± SD: Red Marrow [3]: 1.08E-02 mGy/MBq
- Estimated Absorbed Dose of Organ, Average ± SD: Skin [3]: 6.97E-03 mGy/MBq
- Estimated Absorbed Dose of Organ, Average ± SD: Small Intestine [3]: 1.91E-02 mGy/MBq
- Estimated Absorbed Dose of Organ, Average ± SD: Spleen [3]: 9.14E-03 mGy/MBq
- Estimated Absorbed Dose of Organ, Average ± SD: Stomach Wall [3]: 9.73E-03 mGy/MBq
- Estimated Absorbed Dose of Organ, Average ± SD: Testes [3]: 1.82E-02 mGy/MBq
- Estimated Absorbed Dose of Organ, Average ± SD: Thymus [3]: 7.56E-03 mGy/MBq
- Estimated Absorbed Dose of Organ, Average ± SD: Thyroid [3]: 6.91E-03 mGy/MBq
- Estimated Absorbed Dose of Organ, Average ± SD: Total Body [3]: 1.19E-02 mGy/MBq
- Estimated Absorbed Dose of Organ, Average ± SD: ULI Wall [3]: 1.49E-02 mGy/MBq
- Estimated Absorbed Dose of Organ, Average ± SD: Urinary Bladder Wall [3]: 5.53E-01 † mGy/MBq
- Effective Dose (mSv/MBq), Average ± SD [4]: 2.62E-02 mSv/MBq
- Estimated Absorbed Dose of Organ, Average: Adrenals [4]: 1.23E-02 mGy/MBq
- Estimated Absorbed Dose of Organ, Average: Brain [4]: 8.73E-03 mGy/MBq
- Estimated Absorbed Dose of Organ, Average: Breasts [4]: 9.14E-03 mGy/MBq
- Estimated Absorbed Dose of Organ, Average: Gallbladder Wall [4]: 1.25E-02 mGy/MBq
- Estimated Absorbed Dose of Organ, Average: Heart Wall [4]: 3.82E-02 mGy/MBq
- Estimated Absorbed Dose of Organ, Average: Kidneys [4]: 1.43E-02 § mGy/MBq
- Estimated Absorbed Dose of Organ, Average: Liver [4]: 7.98E-03 mGy/MBq
- Estimated Absorbed Dose of Organ, Average: Lungs [4]: 1.48E-02 mGy/MBq
- Estimated Absorbed Dose of Organ, Average: Muscle [4]: 1.13E-02 mGy/MBq
- Estimated Absorbed Dose of Organ, Average: Osteogenic Cells [4]: 1.67E-02 mGy/MBq
- Estimated Absorbed Dose of Organ, Average: Pancreas [4]: 1.31E-02 mGy/MBq
- Estimated Absorbed Dose of Organ, Average: Red Marrow [4]: 1.11E-02 mGy/MBq
- Estimated Absorbed Dose of Organ, Average: Skin [4]: 8.54E-03 mGy/MBq
- Estimated Absorbed Dose of Organ, Average: Small Intestine [4]: 1.55E-02 mGy/MBq
- Estimated Absorbed Dose of Organ, Average: Spleen [4]: 1.20E-02 mGy/MBq
- Estimated Absorbed Dose of Organ, Average: Stomach Wall [4]: 1.26E-02 mGy/MBq
- Estimated Absorbed Dose of Organ, Average: Testes [4]: 1.22E-02 mGy/MBq
- Estimated Absorbed Dose of Organ, Average: Thymus [4]: 1.17E-02 mGy/MBq
- Estimated Absorbed Dose of Organ, Average: Thyroid [4]: 1.09E-02 ± 1.11E-03 mGy/MBq
- Estimated Absorbed Dose of Organ, Average: Total Body [4]: 1.17E-02 mGy/MBq
- Estimated Absorbed Dose of Organ, Average: ULI Wall [4]: 1.39E-02 mGy/MBq
- Estimated Absorbed Dose of Organ, Average: Urinary Bladder Wall [4]: 8.88E-02 ‡ mGy/MBq
